Read-outs that look alike come from different tables or passages of the source.
Legend:
[1] = test system: influenza virus A/Puerto Rico/8/34 (H1N1); experiment: organism not typed; assay type: cell-based; settings: for IC50: read-out: IC50 (50% inhibitory concentration)
[2] = Cytotoxicity assay (MTT) in MDCK cells; assay type: cell-based, Canine; settings: dog, read-out: CC50 (50% cytotoxic concentration)
Procedure: Initially, maximum non-toxic concentrations were determined for compounds 1–22 to exclude their non-specific antiviral activity. The in vitro cytotoxicity of the tested compounds (CC50) was studied in the normal Madin-Darby Canine Kidney cell line (MDCK) by the MTT ((3-(4,5-dimethylthiazol-2-yl)-2,5-diphenyltetrazolium bromide) test. The highest concentration tested was […]. The cytotoxicity of oseltamivir carboxylate and rimantadine was also evaluated as these have been used as reference drugs in antiviral tests. Compounds at concentration that kills no more than 50% of cells (CC50) were used for further investigation of antiviral activity.
The MDCK cells were seeded onto 96-well culture plates (10^4 cells per well) and incubated at 36 °C in 5% CO2 until continuous monolayer formation. To assess the toxicity of the compounds, a series of their 3-fold dilutions, at concentrations of 300 to 3.7 μg/mL in Eagle’s Minimal Essential Medium (MEM), were prepared. The dilutions were added to the wells of the plates. The cells were incubated for 72 h at 36 °C in a CO2 incubator under 5% CO2. Further, a microtetrazolium (MTT) assay was performed on the 96-well plates. The cells were washed 2 times with saline (0.9% NaCl), and 100 μL/well of MTT solution [3-(4,5-dimethylthiazol-2-yl)-2,5-diphenyltetrazolium bromide] at a concentration of […] in MEM was added. The plates were incubated for 1 h at 36 °C, the liquid was removed, and dimethylsulfoxide (DMSO) (0.1 mL per well) was added. The optical density (OD) of the cells was measured on a Thermo Multiskan FC spectrophotometer (Thermo Fisher Scientific, Waltham, MA, USA) at a wavelength of 540 nm. Based on the obtained data, the CC50, the concentration of the compound that destroys 50% of the cells in the culture, was calculated for each specimen.

[3] = test system: DENV-1:VN/2017/D7709; experiment: Plaque reduction neutralization test (PRNT), DENV-1; assay type: cell-based, Dengue virus; settings: DENV-1, BHK-21 cells; for IC50: Dengue virus, DENV1, read-out: PRNT50 DENV-1 (concentration that reduces plaque number by 50%)
From the text: (§1) The dengue viruses used in this study were DENV-1:VN/2017/D7709, DENV-2: 00St22A, DENV-3: SMLC50, DENV-4: SLMC318. The virus strains were supplied by the Vietnam National Institute of Hygiene and Epidemiology. The four above serotypes of the Dengue virus were propagated in BHK-21 cell lines (provided by Nagasaki University, Japan) in Eagle’s Minimum Essential Medium (EMEM; Gibco Thermo Fischer Scientific, Waltham, MA, USA) with 2% Fetal Bovine Serum (FBS; Sigma Aldrich, St. Louis, MO, USA) at 37 °C under 5% CO2 atmosphere for 5–7 days. The BHK-21 cells were cultured using 10% FBS EMEM medium.
(§2) EMEM (1 mL) containing FBS (2%) was added into each of 24-well plates (with a concentration of […] –1.0 × 10^4 cells/well). The well plates were shaken to induce the formation of identical cell layers. Afterwards, the wells were incubated at 37 °C under 5% CO2 atmosphere overnight until the cell concentration reached at 70–90%. In case this concentration was not yet reached, the incubation was allowed to continue for a further 1 to 2 days.
(§3) The compounds 4–8 and 23 were totally dissolved in EMEM with a concentration of 500 μg/mL, which was serially diluted with step 2 with EMEM containing 2% FBS; the solutions of compounds were kept at 2–8 °C. The viruses were used at the dose of 2.5 × 10^3 PFU/mL in EMEM containing 2% FBS. The virus (100 μL) was added to all the diluted samples. The virus-compounds mixtures were incubated at 37 °C under 5% CO2 atmosphere for 60 min; afterwards, the medium in all wells of the plates was removed. The virus-compounds mixture (50 μL) was added into the wells, according to the designed experimental test concentration/dilution.
(§4) The viral medium was used as the negative control. EMEM (2 mL) containing methyl cellulose (1%) was added and re-incubated at 37 °C under 5% CO2 atmosphere for 4–6 days. The typical DENV-1 and DENV-4-induced CPE appeared after 4 days of incubation, while the durations for DENV-2 and DENV-3 were 5 and 6 days, respectively. These times of incubation allowed the formation of the plaques to be visually observable and countable. The plaques can be observed under a microscope or by eyes. The cells were fixed with formalin (3.7%) for 1 h at room temperature, washed with water, and stained with crystal violet (0.25%) for 1 h at room temperature. Finally, the plaques were counted.

[4] = test system: DENV-2: 00St22A; experiment: Plaque reduction neutralization test (PRNT), DENV-2; assay type: cell-based, Dengue virus; settings: DENV-2, BHK-21 cells; for IC50: Dengue virus, DENV2, read-out: PRNT50 DENV-2 (concentration that reduces plaque number by 50%)
From the text: as §1, §2, §3, §4

[5] = Cytotoxic assay (MTT) against BHK-21 cells; assay type: cell-based; settings: hamster, read-out: CC50 (50% cytotoxic concentration)
Procedure: The cytotoxic evaluation of the extracts was carried out against the BHK-21 cells. Under cultural conditions of EMEM with FBS (10%), the assaying cells were grown in 96-well bottom-transparent plates at a density of 6 × 10^4 cells/mL per well. The compounds that had been dissolved in dimethyl sulfoxide (DMSO) with six different concentrations (500, 250, 125, 62.5, 31.25, 15.625 μg/mL) were added into each well; each concentration was used in triplicate. After incubation at 37 °C under 5% CO2 atmosphere for 48 h, MTT (0.5 mg/mL) was added into each well; afterwards, 4 h incubation was carried out. The liquid in the wells was removed, and DMSO ([…]) was added to each well. The optical absorbance was recorded on a microplate reader at λ = 570 nm (Genious Tecan, Grödig, […]). The optical density in the wells was plotted against the logarithm of compound concentration, and 50% cytotoxic concentration (CC50), the compound concentration decreasing the optical density twice comparing to control wells, was calculated using the appropriate software (Table Curve 2Dv4.USA).

[6] = test system: DENV-4: SLMC318; experiment: Plaque reduction neutralization test (PRNT), DENV-4; assay type: cell-based, Dengue virus; settings: DENV-4, BHK-21 cells; for IC50: Dengue virus, DENV4, read-out: PRNT50 DENV-4 (concentration that reduces plaque number by 50%)
From the text: as §1, §2, §3, §4

[7] = test system: DENV-3: SMLC50; experiment: Plaque reduction neutralization test (PRNT), DENV-3; assay type: cell-based, Dengue virus; settings: DENV-3, BHK-21 cells; for IC50: Dengue virus, DENV3, read-out: PRNT50 DENV-3 (concentration that reduces plaque number by 50%)
From the text: as §1, §2, §3, §4

[8] = test system: MDCK cells; parameters: method as in earlier work; settings: ref 40 (table), read-out: CC50 (50% cytotoxic concentration); cited from earlier work
[9] = test system: influenza virus A/Puerto Rico/8/34 (H1N1); parameters: method as in earlier work; settings: ref 40 (table), read-out: IC50 (50% inhibitory concentration); cited from earlier work
[10] = test system: Flu A H1N1 strain; parameters: method as in doi:10.1177/1934578X1801301008; settings: read-out: IC50 against Flu A H1N1 strain; cited from earlier work
[11] = test system: influenza virus A H7N1; settings: cited from earlier work

CC1(C)CC[C@]2(C(=O)N3CCCNCC3)CC[C@]3(C)C(=CCC4[C@@]5(C)CCC(=O)C(C)(C)C5CC[C@]43C)C2C1 (stereo partly shown) [Compound 2, N-(3-Oxo-olean-12(13)-en-28-oyl)-homopiperazine Amide]
melting point: 174 °C | SI (selectivity index, CC50/IC50) [1]: >27 | IC50 ([1]; MDCK, 72 h): 20 to 21 µM | IC50 [1]: 21 ± 3 µM | CC50 at 72 h [2]: > 560 µM

CC1(C)CC[C@]2(C(=O)NCCN3CCNCC3)CC[C@]3(C)C(=CCC4[C@@]5(C)CCC(=O)C(C)(C)C5CC[C@]43C)C2C1 (stereo partly shown) [Compound 6, N-(3-Oxo-olean-12(13)-en-28-oyl)-aminoethylpiperazine Amide]
IC50 [3]: 67 ± 4 µM | IC50 [4]: 86 ± 5 µM | CC50 at 48 h [5]: 111 ± 8 µM | melting point: 175 °C | SI (selectivity index, CC50/IC50) [1]: 5 | IC50 ([1]; MDCK, 72 h): 82 ± 10 µM | IC50 [6]: 110 ± 8 µM | CC50 at 72 h [2]: 442 ± 31 µM | IC50 [7]: > 111 µM

CC1(C)CC[C@]2(C(=O)N3CCCNCC3)CC[C@]3(C)C(=CCC4[C@@]5(C)Cc6c([nH]c7ccccc67)C(C)(C)C5CC[C@]43C)C2C1 (stereo partly shown) [Compound 7, N-([3,2b]-Indolo-olean-12(13)-en-28-oyl)-homopiperazine Amide]
IC50 [3]: 164 ± 11 µM | IC50 [4]: 105 ± 7 µM | CC50 at 48 h [5]: > 410 µM | melting point: > 200 °C | IC50 [6]: 371 ± 16 µM | IC50 [7]: > 410 µM

CC1(C)CC[C@]2(C(=O)NCCCNCCCCNCCCN)CC[C@]3(C)C(=CCC4[C@@]5(C)Cc6c([nH]c7ccccc67)C(C)(C)C5CC[C@]43C)C2C1 (stereo partly shown) [Compound 8, N-([3,2b]-Indolo-olean-12(13)-en-28-oyl)-spermine Amide]
PRNT50 DENV-1 (concentration that reduces plaque number by 50%) [3]: inactive | IC50 [3]: 336 ± 22 µM | PRNT50 DENV-2 (concentration that reduces plaque number by 50%) [4]: inactive | IC50 [4]: 347 ± 21 µM | CC50 at 48 h [5]: > 351 µM | melting point: 138 °C | SI (selectivity index, CC50/IC50) [1]: >5 | IC50 ([1]; MDCK, 72 h): 27 ± 4 µM | PRNT50 DENV-4 (concentration that reduces plaque number by 50%) [6]: inactive | IC50 [6]: 336 ± 28 µM | CC50 at 72 h [2]: > 140 µM | PRNT50 DENV-3 (concentration that reduces plaque number by 50%) [7]: inactive | IC50 [7]: > 351 µM

CCOC(=O)CNC(=O)CN(Cc1ccccc1)C(=O)[C@]12CCC(C)(C)CC1C1=CCC3[C@@]4(C)CCC(=O)C(C)(C)C4CC[C@@]3(C)[C@]1(C)CC2 (stereo partly shown) [Compound 9, Ethyl N-Benzyl-N-3-oxo-olean-12-en-28-glycylglycinate]
melting point: 245 to 247 °C | SI (selectivity index, CC50/IC50) [1]: >11 | IC50 ([1]; MDCK, 72 h): 41 ± 5 µM | CC50 at 72 h [2]: > 437 µM

CCOC(=O)CNC(=O)CN(Cc1ccccc1)C(=O)[C@]12CCC(C)(C)CC1C1=CCC3[C@@]4(C)Cc5c([nH]c6ccccc56)C(C)(C)C4CC[C@@]3(C)[C@]1(C)CC2 (stereo partly shown) [Compound 10, Ethyl N-Benzyl-N-2,3-indolo-olean-12-en-28-glycylglycinate]
melting point: 197 to 199 °C | SI (selectivity index, CC50/IC50) [1]: 3 | IC50 ([1]; MDCK, 72 h): 39 ± 4 µM | CC50 at 72 h [2]: 121 ± 9 µM

CC1(C)CC[C@]2(C(=O)N3CCCN(CC#N)CC3)CC[C@]3(C)C(=CCC4[C@@]5(C)CCC(=O)C(C)(C)C5CC[C@]43C)C2C1 (stereo partly shown) [Compound 11, N-(3-Oxo-olean-12(13)-en-28-oyl)-4′-cyanomethyl-homopiperazine Amide]
melting point: 191 °C | SI (selectivity index, CC50/IC50) [1]: >12 | IC50 ([1]; MDCK, 72 h): 45 ± 6 µM | CC50 at 72 h [2]: > 522 µM

COC(=O)[C@]12CCC(C)(C)CC1C1=CCC3[C@@]4(C)CC[C@H](N)C(C)(C)C4CC[C@@]3(C)[C@]1(C)CC2 (stereo partly drawn) [Compound 21, Methyl 3β-amino-oleanoate]
CC50 [8]: 18 µM | IC50 [9]: 7.9 µM

COC(=O)[C@]12CCC(C)(C)CC1C1=CCC3[C@@]4(C)CC[C@H](NC(=O)c5ccccc5C(=O)O)C(C)(C)C4CC[C@@]3(C)[C@]1(C)CC2 (stereo partly drawn) [Compound 22, Methyl 3β-N-phthalyl-olean-12(13)-en-28-oate]
melting point: 240 °C | SI (selectivity index, CC50/IC50) [1]: >42 | IC50 ([1]; MDCK, 72 h): 12 ± 2 µM | CC50 at 72 h [2]: > 486 µM

CC1(C)CC[C@]2(CO)CC[C@]3(C)C(NCCC4[C@@]5(C)CC[C@H](O)C(C)(C)C5CC[C@]43C)C2C1 (stereo partly shown) [Compound 23, C-azepano-erythrodiol]
IC50 [3]: 107 ± 7 µM | IC50 [4]: 68 ± 3 µM | CC50 at 48 h [5]: > 544 µM | IC50 [6]: 108 ± 5 µM | IC50 [7]: 228 ± 16 µM

CCC(CC)O[C@@H]1C=C(C(=O)O)C[C@H](N)[C@H]1NC(C)=O [Oseltamivir carboxylate, reference compound]
SI (selectivity index, CC50/IC50) [1]: >667 | IC50 ([1]; MDCK, 72 h): 0.3 ± 0.01 µM | CC50 at 72 h [2]: > 200 µM

CC(N)C12CC3CC(CC(C3)C1)C2 (stereo not shown) [Rimantadine, reference compound]
SI (selectivity index, CC50/IC50) [1]: 6 | CC50 at 72 h [2]: 344 ± 19 µM

Lupane 3,4-seco-3,28-bis-methylpiperazine-amide
IC50 [10]: 27 µM

betulonic acid L-leucine-amide
suppression of the influenza virus A H7N1 [11]: 90% | EC50 ([11]; influenza virus A H7N1): 2.17 µM
